“Also recorded” adds a separate entry of the source.
Assays:
[1] = tested on: S. glaseri; assay: Ascaroside function (Table 12), S. glaseri; type: in vivo
Method: (§1) Various ascarosides and ascaroside blends were administered to various nematodes described below (Table 12). […] A very strong result of affecting nematode behavior is designated in the table as “strong.”

[2] = tested on: Panagrellus redivivus; assay: Ascaroside function (Table 12), Panagrellus redivivus; type: in vivo
Method: as §1

[3] = tested on: several of the tested nematode species; assay: Retention assay, across species; type: in vivo; details: 1 nM, 1 μM and 1 mM tested
Method: OP50 E. coli was grown on a standard 5 cm agar plate (made with standard Nematode Growth Medium). The bacterial lawn was 16 mm in diameter and was grown overnight at 20° C. before being used in trials. Two 4 mm spots (0.6 μL) were placed on opposite sides of the bacterial lawn (using a transparent template to guide spot placement), and several minutes elapsed for the liquid to settle in before placing nematodes down on the assay. Recording began immediately upon worm placement. 0.6 μL of the control was placed on one side of the lawn, and 0.6 μL of the experimental cue was placed on the other side of the lawn, changing the location of the cue throughout trials between left/right and top/bottom to avoid bias.
Nematodes were isolated by gender at the L4 stage the day before being used in trials as developed adults. Worms were evenly divided and placed at two points equidistant from the foci of the scoring region. Trials were recorded for 20 minutes, and frames were collected for analysis at 1 frame per second. Results were averaged from at least three different trials. For every nematode species in this study, a different total number of worms (using water in both scoring regions) was tested to determine the minimum number of worms necessary for consistent unbiased results over a 20 minute trial. The total number of worms used in the multiple species assays depended on that species' optimal parameters. 10 worms were used for P. redivivus males and females, 20 worms were used for C. elegans males and O. dolichuridae males, and 14 worms were used for S. glaseri males. The Automated Software was used to compare worm occupancy in each scoring region over time, and the Chemotaxis Index (Bargmann et al., Cell 74:515-27 (1993), which is hereby incorporated by reference in its entirety) was adapted to score preference or avoidance to each ascaroside.
A video camera attached to the microscope produced a digital video stream, which was then analyzed. The ratio of the time the average worm spent in each region of interest was calculated for every trial. For ease of implementation, all worms in a single experiment were assumed to be roughly the same size. Thus worm pixels were counted instead of whole worms, allowing fractions of a worm in the region of interest to be taken into account. It also eliminated the need for a shape-based worm identification algorithm, and allowed each frame to be analyzed independently. A band-pass filter was applied to each frame to eliminate the effect of uneven lighting and also accentuate the worms against the background. The worm was then identified after thresholding the filtered image. Throughout each experiment, the locations and sizes of the regions of interest were known. Through the filtering described above, it is known which pixels are occupied by worms and which ones are not. Thus, the ratio of worm-pixels to all pixels inside the region of interest can be calculated to produce the worm-occupancy ratio. This calculation was done for every frame, giving a plot output of worm-occupancy ratio vs. time for each region.

[4] = tested on: males; assay: Bioassay of HPLC-purified peak; type: in vivo; details: purified peak with retention time of 9.7 minutes
Method: A Thermo Finnigan LCQ Deca XP Max was used with electrospray ionization in positive ion mode in the 50-1000 AMU range. The Thermo Separation spectra HPLC system consisted of a P4000 quaternary pump, an AS 3000 auto sampler, and a UV 6000 diode array detector. The solvents were water with (a) 0.1% formic acid and (b) 90% acetonitrile-10% water with 10 mM ammonium formate. The column temperature was maintained at 60° C. and a solvent flow of 1.0 ml/min. The reversed phase column (PLRP-S Polymeric reversed phase column, 250×4.6 mmid, Varian Inc.) was eluted with a solvent composition starting with 90:10 (a,b) for 2 minutes, followed by a gradient to 5:95 in 20 minutes and an additional 5 minutes at 5:95. Ultraviolet absorption was monitored at 190 and 400 nm. Solvent flow between the ultraviolet detector and mass spectroscopy electrospray interface split 9:1 with a low-volume micro needle P450 splitter valve (Upchurch Scientific, Oak Harbor, Wash.), making it possible to obtain spectra of eluted compounds and simultaneously collect 90% of the injected material for bioassay. […] This was confirmed to be ascr#1 using NMR analysis.

[5] = tested on: C. elegans; assay: Ascaroside function (Table 12), C. elegans; type: in vivo, Caenorhabditis elegans; design: key to Attract Females/Herm. / Promote Dauer Formation / Attract Males: A very strong result of affecting nematode behavior is designated in the table as “strong.”
Method: as §1

[6] = tested on: AIA interneurons; assay: Calcium imaging (G-CaMP), AIA; type: in vivo, C. elegans; details: 1 μM icas#3
Excerpt: (§2) Transgenic lines that express the genetically encoded Ca^2+ sensor in ASK (kyEx2866) and AIA (kyEx2916) (Macosko et al., Nature 458:1171-75 (2009), which is hereby incorporated by reference in its entirety) were used for calcium imaging. Young adults or adult worms were inserted into an “Olfactory chip” microfluidic device (Chronis et al., Nat. Methods 4:727-31 (2007), which is hereby incorporated by reference in its entirety). Dilutions of icas#3 were done with S-basal buffer (with no cholesterol). As stock solutions of icas#3 contained small amounts of ethanol, equivalent amounts of ethanol were added to the S-basal control flow.
(§3) Imaging was conducted using an inverted Zeiss microscope equipped with an Andor camera. Exposure time for image acquisition was 300 milliseconds. Before imaging the ASK neuron, the worm was exposed to blue light for 3 minutes as ASK responds to the blue light itself. […] Movies were analyzed using custom-made Matlab scripts. The first peak of fluorescence immediately after exposure to buffer or icas#3 was chosen for calculating the average change in fluorescence upon exposure to either buffer or icas#3. The value for this maximum was then subtracted from the mean fluorescence during the 5 seconds before the delivery of icas#3/buffer (corresponding to the region between 5 to 10 seconds in FIG. 2D).

[7] = tested on: C. elegans hermaphrodites; assay: Quadrant chemotaxis assay; type: in vivo
Method: Chemotaxis to both non-indole and indole ascarosides was assessed on 10 cm four-quadrant petri plates (Wicks et al., Dev. Biol. 221:295-307 (2000), which is hereby incorporated by reference in its entirety). Each quadrant was separated from adjacent ones by plastic spacers (FIG. 1B). Pairs of opposite quadrants were filled with nematode growth medium (NGM) agar containing either indole ascarosides or non-indole ascarosides at different concentrations. Animals were washed gently in a S-basal buffer, placed in the center of a four-quadrant plate with ascarosides in alternating quadrants, and scored after 15 minutes and 30 minutes. A chemotaxis index was calculated as: (the number of animals on ascaroside quadrants minus the number of animals on buffer quadrants)/(total number of animals).
Chemotaxis to hbas#3 was assessed on 10 cm four-quadrant petri plates (Wicks et al., Dev. Biol. 221:295-307 (2000), which is hereby incorporated by reference in its entirety). Each quadrant was separated from adjacent ones by plastic spacers. Pairs of opposite quadrants were filled with nematode growth medium (NGM) agar containing different concentrations of hbas#3. Animals were washed gently in an S-basal buffer and placed in the center of a four-quadrant plate with ascarosides in alternating quadrants, and scored after 15 minutes and 30 minutes. A chemotaxis index was calculated as: (the number of animals on ascaroside quadrants minus the number of animals on buffer quadrants)/(total number of animals).

[8] = tested on: ASK neurons; assay: Calcium imaging (G-CaMP), ASK; type: in vivo, C. elegans; details: 1 pM to 1 μM
Excerpt: as §2, §3

[9] = tested on: C. elegans; assay: Aggregation assay; type: in vivo
Method: Aggregation behavior of worms was measured using assays reported in de Bono & Bargmann, Cell 94:679-89 (1998), which is hereby incorporated by reference in its entirety. Aggregation assays were conducted on standard NGM plates. Plates containing indole ascarosides were made by adding the indole ascaroside stock solution to the NGM media before they were poured onto the plates. These plates were dried at room temperature for 2 to 3 days. Control plates were treated similarly, except that ethanol solutions instead of icas solutions were added to the plates, corresponding to the amount of ethanol introduced via the icas solutions. Final ethanol concentrations of the plates were below 0.1% for all conditions. After drying, both control plates and plates containing indole ascarosides were seeded with 150 μl of an overnight culture of E. coli OP50 using a micropipette, and were allowed to dry for 2 days at room temperature. For “low worm density” experiments, 20 worms were placed onto the lawn and left at 20° C. for 3 hours. For “high worm density” experiments, approximately 120 worms were placed onto the bacterial lawn and left at 20° C. for 3 hours. Aggregation behavior was quantified as the number of animals that were in touch with two or more animals at greater than 50% of their body length.

[10] = tested on: C. elegans hermaphrodites and males; assay: Spot attraction assay; type: in vivo
Method: The spot attraction assays were conducted according to a previously reported method (Pungaliya et al., PNAS 106:7708-13 (2009); Srinivasan et al., Nature 454:1115-18 (2008), which are hereby incorporated by reference in their entirety). For both C. elegans hermaphrodites and males, 50-60 worms were harvested daily at the fourth larval stage (L4) and stored segregatedly by sex at 20° C. overnight, to be used as young adults the following day. For the competition experiments, two conditions were used: 120 nM ascr#3 and 10 nM icas#3 (Condition 1), or 12 μM ascr#3 and 1 μM icas#3 (Condition 2) in water containing 10% ethanol. Aliquots were stored at −20° C. in 20 μL tubes. 10% ethanol in water was used as control.
Attraction assays with hbas#3 were conducted as previously reported (Srinivasan et al., Nature 454:1115-18 (2008); Pungaliya et al., Proc. Natl. Acad. Sci. U.S.A. 106:7708-13 (2009), which are hereby incorporated by reference in their entirety). For the attraction assays, 50-60 hermaphrodite worms were harvested daily at the early fourth larval stage (L4) and stored at 20° C. overnight to be used as young adults the following day. Hbas#3 was dissolved in water containing 10% ethanol. Aliquots were stored at −20° C. in 20 μL tubes. 10% ethanol in water was used as control.

[11] = tested on: C. elegans hermaphrodites; assay: Measurement of locomotory parameters (automated worm-tracking system); type: in vivo
Method: Reversal frequency and velocity were measured using an automated worm-tracking system (Pungaliya et al., PNAS 106:7708-13 (2009); Srinivasan et al., Nature 454:1115-18 (2008), which are hereby incorporated by reference in their entirety).

Structure (SMILES): C[C@H](CCCCC(=O)O)O[C@@H]1O[C@@H](C)[C@H](O)C[C@H]1O [ascr#1]
- Attract Males [1]: ascr#1
- Attract Males [2]: ascr#1
- preference for areas conditioned by ascaroside [3]: preferred
- activity to males in the bioassay [4]: active
- Attract Males [5]: ascr#1
- Promote Dauer Formation [5]: ascr#1

Structure (SMILES): C[C@H](CCCC/C=C/C(=O)O)O[C@@H]1O[C@@H](C)[C@H](OC(=O)c2c[nH]c3ccccc23)C[C@H]1O [icas#3]
- G-CaMP fluorescence in AIA interneurons [6]: induces G-CaMP fluorescence signals; also recorded: significantly increased; also recorded: significant changes
- chemotaxis of hermaphrodites from all tested strains ([7]; 1 pM icas#3, after 15 minutes): attracted
- chemotaxis of hermaphrodites from all tested strains ([7]; 1 μM icas#3, after 30 minutes): attracted
- attraction of social wild-type (RC301, CB4856) and npr-1(ad609) hermaphrodites ([7]; in vivo): strongly attracted
- response of daf-22 hermaphrodites ([7]; in vivo): as strongly as N2 worms
- concentration resulting in strong attraction of hermaphrodites (as low as) ([7]; presence and absence of food): ≤ 1 pM
- Ca2+ transients in ASK neurons [8]: no detection
- aggregation of daf-22 hermaphrodites versus N2 ([9]; 1 pM icas#3, low worm density): less aggregation than N2 worms
- aggregation of CB4856 ([9]; 1 nM icas#3, low worm density): not significantly different from the control
- aggregation of npr-1(ad609) hermaphrodites ([9]; entire tested concentration range, without drop off, low worm density): increased aggregation
- active concentration window (hermaphrodite attraction and aggregation) ([9]; in vivo): fM-pM; also recorded: femtomolar to low picomolar
- concentration giving very strong increase in aggregation (as low as) ([9]; low worm density (20 worms per plate), solitary and social hermaphrodites): ≤ 10 fM
- aggregation of ASK-ablated hermaphrodites ([9]; low worm density, any of the tested concentrations): do not aggregate; also recorded: did not aggregate
- concentration of maximal aggregation, social strain CB4856 ([9]; low worm density, bell-shaped response curve): 1 pM
- aggregation of him-5 males ([9]; plates containing 100 fM or 100 pM of icas#3): significantly increased
- attraction after ablation of the RMG interneuron ([10]; N2 (wild-type) and ncs-1::gfp hermaphrodites): does not affect; also recorded: did not affect
- attraction after ablation of ASK sensory neurons ([10]; hermaphrodites): near complete loss of attraction
- attraction of both C. elegans sexes ([10]; high concentrations, 1 μmol, N2 hermaphrodites and him-5 males): attractive; also recorded: attracted
- attraction of AIA-deficient worms ([10]; in vivo): did not show any attraction
- attraction of daf-22 hermaphrodites ([10]; in vivo): attracted; also recorded: as strongly as N2 worms
- attraction of social wild-type (RC301, CB4856) and npr-1(ad609) hermaphrodites ([10]; in vivo): attracted; also recorded: strongly attracted
- attraction of hermaphrodites ([10]; low concentrations, N2 hermaphrodites): strongly attractive
- worm velocity ([11]; 1-10 pM icas#3): not significantly reduced
- mean stopped duration ([11]; aggregation-inducing concentrations, N2 hermaphrodites): strongly increase
- forward velocity of ASK-ablated hermaphrodites ([11]; in vivo): do not display reduced forward velocity
- reversal frequency of ASK-ablated hermaphrodites ([11]; in vivo): does not increase; also recorded: neither increased reversal frequency
- Attract Females/Herm. [5]: ([strong])
- Attract Males [5]: ([strong])
